Results on 35 compounds are retold here after ChEMBL document CHEMBL1122998, “New antihistaminic theophylline or theobromine derivatives” (1985).

The subject of assay [1] is Cavia porcellus. The assay can be described thus: Percentage decrease in bronchodilator activity against serotonin-induced bronchospasm reaction in guinea pig by intraveneous administration at dose 250 ug/kg. Type of assay: functional.
The subject of assay [2] is Cavia porcellus. The assay can be described thus: Percent decrease in bronchodilator activity against acetylcholine-induced bronchospasm reaction in guinea pig by intraveneous administration at dose 250 ug/kg. Type of assay: functional.
The subject of assay [3] is Rattus norvegicus. Nature of the assay: Percent decrease in antiallergic activity by antigen/antibody reaction assay in rat by oral administration at a dose of 10 mg/kg. It is filed as functional.
Assay [4] has as its system Rattus norvegicus. Nature of the assay: Percentage decrease in antiallergic activity against cutaneous reaction to histamine in rat, by oral administration at a dose of 10 mg/kg. Type of assay: functional.
Assay [5] deals with Cavia porcellus. The assay can be described thus: Percent decrease in bronchodilator activity against histamine-induced bronchospasm reaction in guinea pig by intraveneous administration at dose 10.5 ug/kg.

With `Cn1cnc2c1c(=O)n(CC(O)CN1CCN(CCCSc3ccc(Cl)cc3)CC1)c(=O)n2C` (stereo unspecified), the Decrease in assay [1] was 8%; in assay [2], 11%; in assay [3], 0%; in assay [4] it was 0%; in assay [5], 0%.
For the compound `COc1ccc(OCCCN2CCN(CCCn3cnc4c3c(=O)n(C)c(=O)n4C)CC2)cc1`, the Decrease in assay [1] turned out to be 0%; in assay [2], 25%; in assay [3], 0%; in assay [4] it was 0%; in assay [5] it was 60%.
On to `Cn1cnc2c1c(=O)n(CC(O)CN1CCN(CCCOc3ccccc3)CC1)c(=O)n2C` (stereo unspecified), for which the Decrease was found to be 50% in assay [1]; 0% in assay [2]; 76% in assay [3]; 30% in assay [4]; 10% in assay [5].
For `Cn1cnc2c1c(=O)n(CC(O)CN1CCN(CCCSc3ccccc3)CC1)c(=O)n2C` (stereo unspecified) the same measures were 96%, 24%, 43%, 10% and 66%.
For `Cn1c(=O)c2c(ncn2CCC(=O)N2CCN(CCCSc3ccccc3)CC2)n(C)c1=O` the same measures were 0%, 3%, 0%, 0% and 2%.
The matching figures for `Cn1c(=O)c2c(ncn2CCCN2CCN(CCCCOc3ccccc3)CC2)n(C)c1=O`: 26%, 35%, 0%, 0% and 80%.
Turning to `COc1ccc(OCCCN2CCN(CC(O)Cn3c(=O)c4c(ncn4C)n(C)c3=O)CC2)cc1` (stereo unspecified), the Decrease stood at 3% in assay [1]; 11% in assay [2]; 0% in assay [3]; 0% in assay [4]; 28% in assay [5].
For the compound `Cn1c(=O)c2c(ncn2CCCN2CCN(CCOc3ccccc3)CC2)n(C)c1=O`, the Decrease was 0% in assay [1]; 15% in assay [2]; 0% in assay [3]; 0% in assay [4]; 70% in assay [5].
In the case of `Cn1cnc2c1c(=O)n(CCCN1CCN(CCCSc3ccc(Cl)cc3)CC1)c(=O)n2C`, the Decrease in assay [1] came out at 47%; in assay [2], 27%; in assay [3] it was 17.5%; in assay [4], 12%; in assay [5], 0%.
Regarding `Cn1c(=O)c2c(ncn2CC(O)CN2CCN(CC(O)CSc3ccccc3)CC2)n(C)c1=O` (stereo unspecified), the Decrease in assay [1] is given as 0%; in assay [2], 0%; in assay [3], 0%; in assay [4] it was 29%; in assay [5], 89%.
With `Cn1c(=O)c2c(ncn2CC(O)CN2CCN(CCCCSc3ccccc3)CC2)n(C)c1=O` (stereo unspecified), the Decrease in assay [1] worked out at 0%; in assay [2], 34%; in assay [3], 0%; in assay [4], 0%; in assay [5], 13%.
Turning to `Cn1c(=O)c2c(ncn2CC(O)CN2CCN(CCCCOc3ccccc3)CC2)n(C)c1=O` (stereo unspecified), the Decrease in assay [1] was 22%; in assay [2] it was 45%; in assay [3], 0%; in assay [4], 0%; in assay [5], 82%.
In the case of `Cn1c(=O)c2c(ncn2CCCCCCN2CCN(CCCCSc3ccccc3)CC2)n(C)c1=O`, the Decrease in assay [1] is listed as 23%; in assay [2], 23%; in assay [3], 0%; in assay [4], 0%; in assay [5] it was 0%.
Take `Cn1c(=O)c2c(ncn2CCCN2CCN(CCCSc3ccc(Cl)cc3)CC2)n(C)c1=O`: the Decrease in assay [1] turned out to be 0%; in assay [2], 0%; in assay [3], 0%; in assay [4], 0%; in assay [5], 25%.
As to `CN(CCCSc1ccccc1)CCN(C)CCCn1cnc2c1c(=O)n(C)c(=O)n2C`, the values for the Decrease in assay [1], in assay [2] and in assay [5] were 50%, 12% and 2%, respectively.
In the case of `Cn1c(=O)c2c(ncn2CCCN2CCN(CCCOc3ccccc3)CC2)n(C)c1=O`, the Decrease in assay [1] is 35%; in assay [2], 30%; in assay [3] it was 48%; in assay [4] it was 28%; in assay [5], 88%.
The matching figures for `Cn1c(=O)c2c(ncn2CCCN2CCN(CCCOc3ccc(Cl)cc3)CC2)n(C)c1=O`: 0%, 0%, 0%, 0% and 30%.
As for `COc1ccc(SCCCN2CCN(CCCn3cnc4c3c(=O)n(C)c(=O)n4C)CC2)cc1`, the Decrease in assay [1] is reported as 0%; in assay [2] it was 0%; in assay [5] it was 53%.
In the case of `CC(C(=O)N1CCN(CCCSc2ccccc2)CC1)n1cnc2c1c(=O)n(C)c(=O)n2C` (stereo unspecified), the Decrease amounted to 0% in assay [1]; 4% in assay [2]; 5% in assay [3]; 6% in assay [4]; 3% in assay [5].
The matching figures for `Cc1ccc(SCCCN2CCN(CC(O)Cn3c(=O)c4c(ncn4C)n(C)c3=O)CC2)cc1` (stereo unspecified): 42%, 29%, 11%, 4% and 10%.
For `Cn1c(=O)c2c(ncn2CC(O)CN2CCN(CCCCSc3ccc(Cl)cc3)CC2)n(C)c1=O` (stereo unspecified) the same measures were 0%, 0%, 0%, 0% and 0%.
With `COc1cc(OCCCN2CCN(CCCn3cnc4c3c(=O)n(C)c(=O)n4C)CC2)cc(OC)c1OC`, the Decrease in assay [1], in assay [2] and in assay [5] was 0% throughout.
As to `Cn1cnc2c1c(=O)n(CCCN1CCN(CCCOc3ccc(Cl)cc3)CC1)c(=O)n2C`, the Decrease in assay [1] amounted to 30%; in assay [2], 18%; in assay [3], 13%; in assay [4], 12.5%; in assay [5], 14%.
Consider `Cn1c(=O)c2c(ncn2CC(O)CN2CCN(CCCOc3ccccc3)CC2)n(C)c1=O` (stereo unspecified), for which the Decrease in assay [1] is 43%; in assay [2], 23%; in assay [3], 94%; in assay [4] it was 78%; in assay [5], 87%.
For `Cn1c(=O)c2c(ncn2CCC(O)CCN2CCN(CCCSc3ccccc3)CC2)n(C)c1=O` (stereo unspecified) the same measures were 36%, 20%, 70%, 38% and 35%.
The matching figures for `Cn1c(=O)c2c(ncn2CC(O)CN2CCCN(CCCSc3ccccc3)CC2)n(C)c1=O` (stereo unspecified): 0%, 0%, 0%, 4% and 74%.
The matching figures for `Cn1c(=O)c2c(ncn2CCCN2CCN(CCCCSc3ccccc3)CC2)n(C)c1=O`: 24%, 34%, 0%, 0% and 47%.
Consider `COc1ccc(OCCCN2CCN(CC(O)Cn3cnc4c3c(=O)n(C)c(=O)n4C)CC2)cc1` (stereo unspecified), for which the Decrease came out at 0% in assay [1]; 0% in assay [2]; 0% in assay [3]; 0% in assay [4]; 27% in assay [5].
Consider `Cn1cnc2c1c(=O)n(CCCN1CCN(CCCSc3ccccc3)CC1)c(=O)n2C`, for which the Decrease is recorded as 25% in assay [1]; 10% in assay [2]; 15% in assay [3]; 31.5% in assay [4]; 56% in assay [5].
For `Cn1cnc2c1c(=O)n(CC(O)CN1CCN(CCCOc3ccc(Cl)cc3)CC1)c(=O)n2C` (stereo unspecified) the same measures were 11%, 14%, 23%, 24% and 19%.
The matching figures for `Cn1c(=O)c2c(ncn2CC(O)CN2CCN(CCOc3ccccc3)CC2)n(C)c1=O` (stereo unspecified): 21%, 0%, 59%, 56% and 76%.
The matching figures for `Cn1cnc2c1c(=O)n(CCCN1CCN(CC(O)CSc3ccccc3)CC1)c(=O)n2C` (stereo unspecified): 3%, 2%, 0%, 0% and 25%.
Turning to `Cc1ccc(SCCCN2CCN(CCCn3cnc4c3c(=O)n(C)c(=O)n4C)CC2)cc1`, the Decrease in assay [1] is reported as 24%; in assay [2], 35%; in assay [3], 0%; in assay [4], 0%; in assay [5] it was 15%.
As to `CN(C)CCC(c1ccc(Cl)cc1)c1ccccn1` (stereo unspecified) [CHLORPHENIRAMINE], the Decrease amounted to 0% in assay [1], 0% in assay [3], 15% in assay [4] and 62% in assay [5].
On to `CN1CCC(=C2c3ccccc3CC(=O)c3sccc32)CC1` [KETOTIFEN], for which the Decrease in assay [3] turned out to be 64%; in assay [4] it was 90%; in assay [5], 10%.
